Experiments:
Trichophyton tonsuran [1] = test: Agar dilution method, growth on Sabouraud dextrose agar slants; assay type: cell-based, Trichophyton tonsurans; design: key: +++: Maximum Fungal Growth; ++: Moderate Fungal Growth; +: Minimum Fungal Growth; +/−: Very little Fungal Growth; −: No Fungal Growth; details: 12th day after inoculation
Method in brief: (§1)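 Growth of each dermatophyte was recorded every second day over 10-12 days at 25-28 °C on agar slants. These slants were Sabouraud dextrose agar into which the compound in DMSO had been blended while the agar was liquid at 45 °C.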

[2] = tested on: Trichophyton mentagrophyte; test: as above; assay type: cell-based, Trichophyton mentagrophytes; design: key to Fungal growth: +++: Maximum Fungal Growth; ++: Moderate Fungal Growth; +: Minimum Fungal Growth; +/−: Very little Fungal Growth; −: No Fungal Growth; details: 12th day after inoculation
Method in brief: as §1

Microsporum audouinii = test: Summary of anti-fungal assays (direct addition, agar dilution, liquid culture); assay type: cell-based; details: stated in words (Tables 1a/1b, text to Table 5)
Procedure: (§2) This example summarizes the results of various other assays of the anti-fungal activity of betulin derivatives. Table 5 summarizes results using different assay methods—direct addition, agar dilution, and direct addition to liquid culture, as disclosed in the previous three Examples. In some cases, only one type of assay was done with a compound. In other cases, the compound was tested by multiple assays.

Trichophyton tonsuran [3] = test: Direct addition method, solid compound in Sabouraud dextrose agar; assay type: cell-based, Trichophyton tonsurans; design: key: +++: Maximum Fungal Growth; ++: Moderate Fungal Growth; +: Minimum Fungal Growth; +/−: Very little Fungal Growth; −: No Fungal Growth; details: 4 mg/mL of agar; 12th day after inoculation
Procedure: (§3) Direct addition method. Sabouraud dextrose agar was prepared according to the manufacturer's instructions and 5.0 ml was dispensed in each 100×25 mm tube. The tubes were autoclaved. To each tube containing 5.0 ml of liquid agar at 45° C., 20 mg of solid test compound was added, to give a final concentration of 4 mg/ml. The agar was solidified in slants. The fungal cultures were then innoculated. The slants were incubated at 25-28 ° C. for 10-12 days, and the growth of the fungus was recorded every second day. The results in Table 2 indicate growth at the 12th day of inoculation.

Epidermophyton floccosum [4] = test: Agar dilution method, growth on Sabouraud dextrose agar slants; assay type: cell-based; design: key to Fungal growth: +++: Maximum Fungal Growth; ++: Moderate Fungal Growth; +: Minimum Fungal Growth; +/−: Very little Fungal Growth; −: No Fungal Growth; details: 12th day after inoculation
Method in brief: as §1

Microsporum gypseum [5] = test: Direct addition method, solid compound in Sabouraud dextrose agar; assay type: cell-based; design: key: +++: Maximum Fungal Growth; ++: Moderate Fungal Growth; +: Minimum Fungal Growth; +/−: Very little Fungal Growth; −: No Fungal Growth; details: 4 mg/mL of agar; 12th day after inoculation
Method in brief: (§4)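 Presence or absence of fungal growth was noted on alternate days, with the day-12 observation used. Test material, added undissolved to 45° C. Sabouraud dextrose medium to reach 4 mg/ml final, was solidified as slants before inoculation and incubation at 25-28° C.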

Microsporum canis [6] = test: as above; assay type: cell-based; design: key: +++: Maximum Fungal Growth; ++: Moderate Fungal Growth; +: Minimum Fungal Growth; +/−: Very little Fungal Growth; −: No Fungal Growth; details: 4 mg/mL of agar; 12th day after inoculation
Method in brief: as §4

[7] = tested on: Trichophyton mentagrophytes; test: as above; assay type: cell-based; design: key: +++: Maximum Fungal Growth; ++: Moderate Fungal Growth; +: Minimum Fungal Growth; +/−: Very little Fungal Growth; −: No Fungal Growth; details: 4 mg/mL of agar; 12th day after inoculation
Method in brief: as §4

Trichophyton rubrum [8] = test: as above; assay type: cell-based; design: key: +++: Maximum Fungal Growth; ++: Moderate Fungal Growth; +: Minimum Fungal Growth; +/−: Very little Fungal Growth; −: No Fungal Growth; details: 4 mg/mL of agar; 12th day after inoculation
Method in brief: as §4

Pityrosporum ovale [9] = test: as above; assay type: cell-based; design: key: +++: Maximum Fungal Growth; ++: Moderate Fungal Growth; +: Minimum Fungal Growth; +/−: Very little Fungal Growth; −: No Fungal Growth; details: 4 mg/mL of agar; 12th day after inoculation
Method in brief: as §4

Epidermophyton floccosum [10] = test: as above; assay type: cell-based; design: key: +++: Maximum Fungal Growth; ++: Moderate Fungal Growth; +: Minimum Fungal Growth; +/−: Very little Fungal Growth; −: No Fungal Growth; details: 4 mg/mL of agar; 12th day after inoculation
Method in brief: as §4

Microsporum gypseum [11] = test: Agar dilution method, growth on Sabouraud dextrose agar slants; assay type: cell-based; design: key: +++: Maximum Fungal Growth; ++: Moderate Fungal Growth; +: Minimum Fungal Growth; +/−: Very little Fungal Growth; −: No Fungal Growth; details: 12th day after inoculation
Method in brief: as §1

Microsporum canis [12] = test: as above; assay type: cell-based; design: key: +++: Maximum Fungal Growth; ++: Moderate Fungal Growth; +: Minimum Fungal Growth; +/−: Very little Fungal Growth; −: No Fungal Growth; details: 12th day after inoculation
Method in brief: as §1

Trichophyton rubrum [13] = test: as above; assay type: cell-based; design: key: +++: Maximum Fungal Growth; ++: Moderate Fungal Growth; +: Minimum Fungal Growth; +/−: Very little Fungal Growth; −: No Fungal Growth; details: 12th day after inoculation
Method in brief: as §1

Pityrosporum ovale [14] = test: as above; assay type: cell-based; design: key: +++: Maximum Fungal Growth; ++: Moderate Fungal Growth; +: Minimum Fungal Growth; +/−: Very little Fungal Growth; −: No Fungal Growth; details: 12th day after inoculation
Method in brief: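 In this agar dilution format, DMSO solutions of compound went into liquid Sabouraud dextrose agar (45 °C), which was slanted and inoculated. Incubation ran 10-12 days at 25-28 °C.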

herpes simplex virus = details: cited from earlier work
Microsporum audouinni [15] = test: Agar dilution method, growth on Sabouraud dextrose agar slants; assay type: cell-based, Microsporum audouinii; design: key: +++: Maximum Fungal Growth; ++: Moderate Fungal Growth; +: Minimum Fungal Growth; +/−: Very little Fungal Growth; −: No Fungal Growth; details: 12th day after inoculation
Method in brief: as §1

Trichophyton rubrum [16] = test: Direct addition method, solid compound in Sabouraud dextrose agar; assay type: cell-based; details: against Trichophyton rubrum
Procedure: as §3

Microsporum audouinni [17] = test: as above; assay type: cell-based, Microsporum audouinii; design: key to Fungal growth: +++: Maximum Fungal Growth; ++: Moderate Fungal Growth; +: Minimum Fungal Growth; +/−: Very little Fungal Growth; −: No Fungal Growth; details: for Fungal growth: 4 mg/mL of agar, 12th day after inoculation
Method in brief: as §4

Pityrosporum ovale [18] = test: Direct addition into the Pityrosporum agar; assay type: cell-based; design: key to Pityrosporum ovale growth: +++: Maximum Growth; ++: Moderate Growth; +: Minimum Growth; +/−: Very Little Growth; −: No Growth; details: 4 mg/ml in the agar; 18 hours after inoculation
Procedure: as §3, with “The slants were incubated at 25-28 ° C. for 10-12 days, and the growth of the fungus was recorded every second day. The results in Table 2 indicate growth at the 12th day of inoculation.” left out

Microsporum canis [19] = test: Direct addition method, solid compound in Sabouraud dextrose agar; assay type: cell-based; details: against Microsporum canis
Procedure: as §3

Microsporum canis [20] = test: as above; assay type: cell-based; design: key: +++: Maximum Fungal Growth; ++: Moderate Fungal Growth; +: Minimum Fungal Growth; +/−: Very Little Fungal Growth; −: No Fungal Growth; details: 4 mg/mL of agar; 12th day after inoculation
Procedure: as §3

Microsporum gypseum [21] = test: Summary of anti-fungal assays (direct addition, agar dilution, liquid culture); assay type: cell-based; details: stated in words (Tables 1a/1b, text to Table 5)
Procedure: as §2

Candida albicans = test: as above; assay type: cell-based; details: stated in words (Tables 1a/1b, text to Table 5)
Procedure: as §2

[22] = tested on: Trichophyton mentagrophytes; test: as above; assay type: cell-based; details: stated in words (Tables 1a/1b, text to Table 5)
Procedure: as §2

Blastomyces dermatidis = test: as above; assay type: cell-based; details: stated in words (Tables 1a/1b, text to Table 5)
Procedure: as §2

Trichophyton tonsurans = test: as above; assay type: cell-based; details: stated in words (Tables 1a/1b, text to Table 5)
Procedure: as §2

Epidermophyton floccosum [23] = test: as above; assay type: cell-based; details: stated in words (Tables 1a/1b, text to Table 5); listed as betulin-3,28-dioxalate-3,28-polyethyleneimine
Procedure: as §2

Crytococcus neoformans = test: as above; assay type: cell-based, Cryptococcus neoformans; details: stated in words (Tables 1a/1b, text to Table 5)
Procedure: as §2

C=C(C)[C@@H]1CC[C@]2(CO)CC[C@]3(C)[C@H](CC[C@@H]4[C@@]5(C)CC[C@H](O)C(C)(C)[C@@H]5CC[C@]43C)[C@@H]12 [Betulin, lup-20(29)-ene-3,28-diol]
Fungal growth (Trichophyton tonsuran [1]; 12.5 μg/ml): +++ | Fungal growth (Trichophyton tonsuran [1]; 25 μg/ml): ++ | Fungal growth (Trichophyton tonsuran [1]; 50 μg/ml): ++ | Fungal growth (Trichophyton tonsuran [1]; 100 μg/ml): − | Fungal growth ([2]; 12.5 μg/ml): ++ | Fungal growth ([2]; 25 μg/ml): + | Fungal growth ([2]; 50 μg/ml): +/− | Fungal growth ([2]; 100 μg/ml): − | Active against Microsporum audouinii (Microsporum audouinii): Microsporum audouinii, | Fungal growth (Trichophyton tonsuran [3]): ++ | Fungal growth (Epidermophyton floccosum [4]; 12.5 μg/ml): + | Fungal growth (Epidermophyton floccosum [4]; 25 μg/ml): + | Fungal growth (Epidermophyton floccosum [4]; 50 μg/ml): − | Fungal growth (Epidermophyton floccosum [4]; 100 μg/ml): − | Fungal growth (Microsporum gypseum [5]): ++ | Fungal growth (Microsporum canis [6]): + | Fungal growth [7]: ++ | Fungal growth (Trichophyton rubrum [8]): − | Fungal growth (Pityrosporum ovale [9]): − | Fungal growth (Epidermophyton floccosum [10]): − | Fungal growth (Microsporum gypseum [11]; 12.5 μg/ml): +++ | Fungal growth (Microsporum gypseum [11]; 25 μg/ml): ++ | Fungal growth (Microsporum gypseum [11]; 50 μg/ml): ++ | Fungal growth (Microsporum gypseum [11]; 100 μg/ml): − | Fungal growth (Microsporum canis [12]; 12.5 μg/ml): ++ | Fungal growth (Microsporum canis [12]; 25 μg/ml): + | Fungal growth (Microsporum canis [12]; 50 μg/ml): +/− | Fungal growth (Microsporum canis [12]; 100 μg/ml): − | Fungal growth (Trichophyton rubrum [13]; 12.5 μg/ml): ++ | Fungal growth (Trichophyton rubrum [13]; 25 μg/ml): ++ | Fungal growth (Trichophyton rubrum [13]; 50 μg/ml): + | Fungal growth (Trichophyton rubrum [13]; 100 μg/ml): − | Fungal growth (Pityrosporum ovale [14]; 12.5 μg/ml): +++ | Fungal growth (Pityrosporum ovale [14]; 25 μg/ml): +++ | Fungal growth (Pityrosporum ovale [14]; 50 μg/ml): ++ | Fungal growth (Pityrosporum ovale [14]; 100 μg/ml): +/− | Anti-viral activity against herpes simplex virus (herpes simplex virus): anti-viral activity | Fungal growth (Microsporum audouinni [15]; 12.5 μg/ml): +/− | Fungal growth (Microsporum audouinni [15]; 25 μg/ml): +/− | Fungal growth (Microsporum audouinni [15]; 50 μg/ml): − | Fungal growth (Microsporum audouinni [15]; 100 μg/ml): − | best anti-fungal or anti-yeast activity by the direct addition method (Trichophyton rubrum [16]): against Trichophyton rubrum | Fungal growth (Microsporum audouinni [17]): − | best anti-fungal or anti-yeast activity by the direct addition method (Microsporum audouinni [17]; against Microsporum audouinii): against Microsporum audouinii

C=C(C)[C@@H]1CC[C@]2(COC(=O)CN)CC[C@]3(C)[C@H](CC[C@@H]4[C@@]5(C)CC[C@H](OC(=O)CN)C(C)(C)[C@@H]5CC[C@]43C)[C@@H]12 [Betulin-3,28-diglycine]
Fungal growth (Trichophyton rubrum [8]): + | Fungal growth (Pityrosporum ovale [9]): − | Fungal growth (Epidermophyton floccosum [10]): − | Pityrosporum ovale growth (Pityrosporum ovale [18]): + | best anti-fungal or anti-yeast activity by the direct addition method (Microsporum canis [19]): against Microsporum canis | Fungal growth (Microsporum canis [20]): +/− | Fungal growth (Microsporum audouinni [17]): +

Betulin-3,28-dioxalate-3,28-polyethyleneimine
Active against Microsporum gypseum (Microsporum gypseum [21]): Microsporum gypseum, | Active against Candida albicans (Candida albicans): Candida albicans, | Active against Trichophyton mentagrophytes [22]: Trichophyton mentagrophytes, | Active against Blastomyces dermatidis (Blastomyces dermatidis): against Blastomyces dermaidis | Active against Trichophyton tonsurans (Trichophyton tonsurans): Trichophyton tonsurans, | Active against Microsporum audouinii (Microsporum audouinii): Microsporum audouinii, | Active against Epidermophyton floccosum (Epidermophyton floccosum [23]): against Epidermophyton floccosum | Active against Cryptococcus neoformans (Crytococcus neoformans): against Crytococcus neoformans
